# According to PMC8016166, “Identification of a Potent and Selective 5-HT1A Receptor Agonist with In Vitro and In Vivo Antinociceptive Activity” (ACS Chemical Neuroscience, 2020):
# What was measured:
# [1] = test system: superficial dorsal horn neurons (lamina I–II); test: Patch-clamp recording from spinal cord slices; type: cell-based, mouse; details: for neurons showing slow outward current: voltage clamp −60 mV
# Method: The Italian Ministry of Health approved all the experiments that were conducted on postnatal CD1 mice (P18–P25) in accordance with the Guide for the Care and Use of Laboratory Animals and the EU and Italian regulations on animal welfare. The spinal cord slices were obtained following the procedure described previously.[69],[70] Briefly, the animals were anesthetized with isoflurane and decapitated, the spinal cord and vertebrae were rapidly removed and placed in ice-cold dissecting Krebs’ solution (composition in mM:125 NaCl, 2.5 KCl, 1.25 NaH2PO4, 26 NaHCO3, 25 glucose, 6 MgCl2, 1.5 CaCl2, and 1 kynurenic acid, pH 7.4, 320 mOsm), bubbled with 95% O2, 5% CO2. The lumbar spinal cord was isolated, embedded in an agarose block (low melting point agarose 3%, Thermo Fisher Scientific, Waltham, USA), and transverse slices (500 μm thick) were obtained using a vibrating microtome (WPI, Sarasota, USA). The slices were incubated in oxygenated incubation Krebs’ solution (the same as dissecting but without kynurenic acid) at 35 °C for 30 min and used for recording. The Patch-clamp recording in whole-cell configuration was performed on lamina I–II neurons at room temperature. The slices were perfused at 2 mL/min with recording Krebs’solution (in mM: 125 NaCl, 2.5 KCl, 1.25 NaH2PO4, 26 NaHCO3, 25 glucose, 1 MgCl2, and 2 CaCl2, pH 7.4, 320 mOsm). Recordings of post-synaptic currents (EPSCs) were performed in voltage clamp, by using an intracellular solution with the following composition (in mM): 120 potassium methanesulfonate, 10 NaCl, 10 EGTA, 1 CaCl2, 10 HEPES, 5 ATP-Mg, pH adjusted to 7.2 with KOH, osmolarity 300 mOsm. 8-OH-DPAT was obtained from Sigma-Aldrich (Saint Louis, USA). The data were recorded and acquired using a Multiclamp 700A amplifier and the pClamp 10 software (Molecular Devices, Sunnyvale, USA). The sampling rate was 10 kHz, and the data were filtered at 2 kHz. The data were analyzed off-line using pClamp10 software and Minianalysis (Synaptosoft, USA). The data are expressed as the mean ± SEM and differences were considered significant for p < 0.05. The statistical significance for the effect on EPSC frequency was determined using the Kolmogorov–Smirnov test on individual neurons.
# [2] = test system: MDCK-MDR1 monolayers; set-up: method as in PMID 30043643; details: cited from earlier work
# [3] = test system: male Albino Swiss mice; test: Hot plate test; type: in vivo, mouse
# Method: The experiments were performed on male Albino Swiss mice (20–25 g), where 4 animals were kept in a cage, in an environmentally controlled room (ambient temperature 22 ± 1 °C; relative humidity 50–60%; 12 h light/dark cycle, lights on at 8:00). Standard laboratory food (LSM, Agropol-Motycz, Poland) and filtered water were available ad libitum. All the behavioral experiments were carried out in accordance with the European Community Council Directive for Care and Use of Laboratory Animals (2010/63/EU) (2016), and approved by the Local Ethics Committee for Animal Experimentation. The tested compounds were administered intraperitoneally (i.p.), dissolved in DMSO (its final concentration of 0.1%), suspended in 0.5% Tween-80 (1–2 drops) and then diluted using an aqueous solution of 0.5% methylcellulose (tylose). All the compounds were given in a manner generally accepted in experimental pharmacology, in a volume of 10 mL/kg body weight. The animals were weighed immediately before injection. Each group consisted of 8 members. The control animals received an equivalent volume of the solvent at the respective time before the tests. […] Between injections, the mice were provided with stable living conditions and unrestricted access to food and water. All the experiments were conducted in the light phase between 09.00 a.m. and 05.00 p.m. For the hot plate test, the mice were placed on a hot plate (Ugo Basile Srl, Gemonio, Italy) maintained at a constant temperature of 55 °C with a cutoff time of 20 s. The baseline latency response (in seconds), induced by the thermal stimulus, with the mouse lifting either of the hind paws or jumping with all four feet off the hot plate, before administration of a compound was measured first. The animals were then administered with compounds and the post-treatment latency responses were determined at 30 min time intervals up to 180 min after drug injection. The antinociceptive effects of the compounds were expressed as a percentage of maximum possible effect (%MPE), which was calculated according to the following equation: [(T1 – T0)/(20 – T0)] × 100, where T0 and T1 are the predrug and post-drug latencies for hot plate response, respectively.[37],[38] The results were calculated using the one-way analysis of variance (ANOVA) followed by Bonferroni’s post hoc test. The results are presented as the means ± standard errors of mean (S.E.M.). The level of p < 0.05 was considered statistically significant. All the figures were prepared using the GraphPad Prism ver. 5.00 for Windows (GraphPad Software, San Diego, CA, USA), www.graphpad.com.
# [4] = target: T1, human voltage gated potassium ion channel hERG (Homo sapiens, UniProt Q12809); test: CiPA hERG QPatch assay (hERG-CHO automated patch-clamp); type: cell-based; details: 0.1 and 1 μM, QPatch
# T1 construct: host or cells: CHO (hERG-CHO)
# T1 sequence (Q12809 whole entry): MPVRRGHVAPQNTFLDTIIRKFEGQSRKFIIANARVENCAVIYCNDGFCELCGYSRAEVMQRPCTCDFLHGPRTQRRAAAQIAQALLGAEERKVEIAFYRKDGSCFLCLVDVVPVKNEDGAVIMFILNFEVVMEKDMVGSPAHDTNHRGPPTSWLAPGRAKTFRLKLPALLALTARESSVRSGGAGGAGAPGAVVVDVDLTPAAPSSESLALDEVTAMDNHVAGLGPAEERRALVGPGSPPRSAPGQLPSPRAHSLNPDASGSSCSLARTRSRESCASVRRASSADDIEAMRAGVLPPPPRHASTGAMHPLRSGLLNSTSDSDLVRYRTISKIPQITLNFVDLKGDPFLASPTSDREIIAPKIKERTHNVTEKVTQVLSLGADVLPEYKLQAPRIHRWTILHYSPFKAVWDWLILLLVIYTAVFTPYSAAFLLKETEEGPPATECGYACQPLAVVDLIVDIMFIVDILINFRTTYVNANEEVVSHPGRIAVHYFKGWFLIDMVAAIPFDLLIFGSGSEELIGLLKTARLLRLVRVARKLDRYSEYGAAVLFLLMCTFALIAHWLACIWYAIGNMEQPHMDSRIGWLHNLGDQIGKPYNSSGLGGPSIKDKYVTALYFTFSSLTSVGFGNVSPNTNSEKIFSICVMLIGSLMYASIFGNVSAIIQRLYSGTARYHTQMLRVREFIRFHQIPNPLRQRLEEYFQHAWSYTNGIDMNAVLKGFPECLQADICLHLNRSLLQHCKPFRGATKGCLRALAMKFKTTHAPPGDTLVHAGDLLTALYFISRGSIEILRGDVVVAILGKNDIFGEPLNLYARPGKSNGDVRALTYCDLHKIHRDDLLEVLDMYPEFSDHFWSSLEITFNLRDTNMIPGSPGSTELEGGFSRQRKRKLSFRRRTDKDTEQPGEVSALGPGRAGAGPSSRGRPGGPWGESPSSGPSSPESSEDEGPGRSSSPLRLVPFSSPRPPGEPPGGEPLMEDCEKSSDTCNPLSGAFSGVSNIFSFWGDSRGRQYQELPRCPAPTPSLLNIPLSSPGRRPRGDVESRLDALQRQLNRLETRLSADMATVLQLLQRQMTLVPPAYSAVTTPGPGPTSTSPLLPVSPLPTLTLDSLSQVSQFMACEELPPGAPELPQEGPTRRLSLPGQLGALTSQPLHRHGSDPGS
# Source text: (§1) After whole cell configuration is achieved, the cell is held at −80 mV. A 500 ms pulse to −40 mV is delivered to measure the leaking current, which is subtracted from the tail current online. Then, the cell is depolarized to +40 mV for 500 ms and then to −80 mV over a 100 ms ramp to elicit the hERG tail current. This paradigm is delivered once every 8 s to monitor the current amplitude.
# (§2) The parameters measured were the maximum tail current evoked on stepping to 40 mV and ramping back to −80 mV from the test pulse. All data were filtered for seal quality, seal drop, and current amplitude. The peak current amplitude was calculated before and after compound addition, and the amount of block was assessed by dividing the Test compound current amplitude by the Control current amplitude. Control is the mean hERG current amplitude collected 15 s at the end of the control; Test Compound is the mean hERG current amplitude collected in the presence of test compound at each concentration.
# [5] = target: T2, hERG (Homo sapiens, UniProt Q12809); test: as above; type: cell-based; details: human, CHO cells expressing hERG (hERG-CHO), read-out: % inhibition of tail current in hERG-CHO
# T2 construct: host or cells: CHO (hERG-CHO)
# T2 sequence (Q12809 whole entry): as above
# Source text: as §1, §2
Structure (SMILES),neurons showing sEPSC frequency decrease ([1]; 50 μM),neurons showing slow outward current ([1]; 50 μM),neurons showing slow outward current ([1]; bath application 10 μM),efflux ratio ([2]; MDCK-MDR1 monolayers),permeation of MDCK-MDR1 monolayers mimicking the BBB [2],"MPE values in the hot plate test ([3]; mice, 5, 10 and 20 mg/kg i.p., 30-180 min)",neurons showing sEPSC frequency decrease ([1]; 10 μM),"neurons showing outward current in presence of naloxone ([1]; 10 μM (S)-1, naloxone present)","neurons showing significant decrease in sEPSC frequency in presence of naloxone ([1]; 10 μM (S)-1, naloxone present)","outward current in presence of WAY-100635 ([1]; (S)-1 with WAY-100635 10 μM, 7 neurons tested)","reaction time to the thermal stimulus (hot plate) ([3]; mice, 5 mg/kg i.p.)","reaction time to the thermal stimulus (hot plate) ([3]; mice, 10 mg/kg i.p., 30, 90, 120 and 180 min)","reaction time to the thermal stimulus (hot plate) ([3]; mice, 20 mg/kg i.p., 30, 90, 120 and 180 min)","antinociceptive effect in hot plate with WAY-100635 ([3]; mice, (S)-1 10 mg/kg + WAY-100635 3 mg/kg, at 30 min)",hERG inhibition [4],inhibition at 0.1 µM ([5]; 0.1 μM) [%],inhibition at 1 µM ([5]; 1 μM) [%],inhibition at 10 µM ([5]; 10 μM) [%]
"c1ccc(C2(c3ccccc3)OCC(CNCCOc3ccccc3-c3ccncc3)O2)cc1 (racemic) [rac-1, N-[(2,2-diphenyl-1,3-dioxolan-4-yl)methyl]-2-[2-(pyridin-4-yl)phenoxy]ethan-1-ammonium hydrogenoxalate]",7 out of 23,5 out of 23,not effective,low,"permeate, by passive diffusion",did not reveal any significant change in the MPE values,,,,,,,,,,,,
"c1ccc(C2(c3ccccc3)OC[C@H](CNCCOc3ccccc3-c3ccncc3)O2)cc1 [(S)-1, N-[(2,2-Diphenyl-1,3-dioxolan-4-yl)methyl]-2-[2-(pyridin-4-yl)phenoxy]ethan-1-ammonium hydrogenoxalate]",,,5 out of 12,,,,5 out of 12,5 out of 12,6 out of 12,failed to evoke the outward currents,a significant effect was only noted at 120 and 180 min,significantly increased,significantly increased the reaction time,significantly reversed the antinociceptive effect,does not inhibit hERG,-3.35,5.61,66.7
